Tested on: 323965-272-R-J2-PDC complex spheroid growth, % test/control
Test: Anticancer human tumor 323965-272-R-J2-PDC patient-derived pancreatic carcinoma cell line growth inhibition [Asc]
Settings: for IC50: curve of first compound; for viability, T/C: stronger effect = lower value
In short: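 Tumor cells were grown as multicellular spheroids with stromal HUVEC and mesenchymal stem cells and treated singly or in combination. Concentrations fell in half-log steps from the clinical Cmax, or from 10 microM where none was known.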
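Also: compound exposure lasted 7 days starting three days after spheroid seeding.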
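For viability, T/C in this document: 100% = DMSO vehicle control wells with viability set relative to vehicle.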

## NC(=O)C(=Cn1cnc(-c2cc(C(F)(F)F)cc(C(F)(F)F)c2)n1)c1cncnc1 + Cc1c(S(C)(=O)=O)c(-c2cc(F)cc(N3CCN(c4ccc(NS(=O)(=O)c5ccc(NC(CCN6CCC(C(=O)OCCCP(=O)(O)O)CC6)CSc6ccccc6)c(S(=O)(=O)C(F)(F)F)c5)cc4)CC3)c2)c(-c2ccc(Cl)cc2)n1C(C)C
Second compound 0.0316 µM
  IC50: > 0.3 µM
Second compound 0.1 µM
  IC50: > 0.3 µM
Second compound 0.316 µM
  IC50: > 0.3 µM
Second compound 1 µM
  IC50: 0.205 µM
Second compound 3.16 µM
  IC50: 0.114 µM
Second compound 10 µM
  IC50: 0.0637 µM
Second compound 0.0316 µM, first compound 0.000949 µM
  viability, T/C: 111%
Second compound 0.0316 µM, first compound 0.003 µM
  viability, T/C: 96.9%
Second compound 0.0316 µM, first compound 0.00949 µM
  viability, T/C: 115%
Second compound 0.0316 µM, first compound 0.03 µM
  viability, T/C: 89.1%
Second compound 0.0316 µM, first compound 0.0949 µM
  viability, T/C: 81.5%
Second compound 0.0316 µM, first compound 0.3 µM
  viability, T/C: 55.8%
Second compound 0.1 µM, first compound 0.000949 µM
  viability, T/C: 95.2%
Second compound 0.1 µM, first compound 0.003 µM
  viability, T/C: 92.8%
Second compound 0.1 µM, first compound 0.00949 µM
  viability, T/C: 92%
Second compound 0.1 µM, first compound 0.03 µM
  viability, T/C: 94.8%
Second compound 0.1 µM, first compound 0.0949 µM
  viability, T/C: 78%
Second compound 0.1 µM, first compound 0.3 µM
  viability, T/C: 53.8%
Second compound 0.316 µM, first compound 0.000949 µM
  viability, T/C: 94%
Second compound 0.316 µM, first compound 0.003 µM
  viability, T/C: 100%
Second compound 0.316 µM, first compound 0.00949 µM
  viability, T/C: 93.3%
Second compound 0.316 µM, first compound 0.03 µM
  viability, T/C: 84.9%
Second compound 0.316 µM, first compound 0.0949 µM
  viability, T/C: 76.1%
Second compound 0.316 µM, first compound 0.3 µM
  viability, T/C: 49.8%
Second compound 1 µM, first compound 0.000949 µM
  viability, T/C: 91%
Second compound 1 µM, first compound 0.003 µM
  viability, T/C: 88.6%
Second compound 1 µM, first compound 0.00949 µM
  viability, T/C: 80.2%
Second compound 1 µM, first compound 0.03 µM
  viability, T/C: 77.6%
Second compound 1 µM, first compound 0.0949 µM
  viability, T/C: 64.4%
Second compound 1 µM, first compound 0.3 µM
  viability, T/C: 42.6%
Second compound 3.16 µM, first compound 0.000949 µM
  viability, T/C: 79%
Second compound 3.16 µM, first compound 0.003 µM
  viability, T/C: 78.1%
Second compound 3.16 µM, first compound 0.00949 µM
  viability, T/C: 76%
Second compound 3.16 µM, first compound 0.03 µM
  viability, T/C: 63.1%
Second compound 3.16 µM, first compound 0.0949 µM
  viability, T/C: 55%
Second compound 3.16 µM, first compound 0.3 µM
  viability, T/C: 32.6%
Second compound 10 µM, first compound 0.000949 µM
  viability, T/C: 69.9%
Second compound 10 µM, first compound 0.003 µM
  viability, T/C: 68.7%
Second compound 10 µM, first compound 0.00949 µM
  viability, T/C: 63.1%
Second compound 10 µM, first compound 0.03 µM
  viability, T/C: 63.6%
Second compound 10 µM, first compound 0.0949 µM
  viability, T/C: 43%
Second compound 10 µM, first compound 0.3 µM
  viability, T/C: 30.3%

## NC1CCC(NC2CC2c2ccccc2)CC1 (centres undefined) + Cc1c(S(C)(=O)=O)c(-c2cc(F)cc(N3CCN(c4ccc(NS(=O)(=O)c5ccc(NC(CCN6CCC(C(=O)OCCCP(=O)(O)O)CC6)CSc6ccccc6)c(S(=O)(=O)C(F)(F)F)c5)cc4)CC3)c2)c(-c2ccc(Cl)cc2)n1C(C)C
Second compound 0.0316 µM
  IC50: > 0.1 µM
Second compound 0.1 µM
  IC50: > 0.1 µM
Second compound 0.316 µM
  IC50: > 0.1 µM
Second compound 1 µM
  IC50: > 0.1 µM
Second compound 3.16 µM
  IC50: > 0.1 µM
Second compound 10 µM
  IC50: > 0.1 µM
Second compound 0.0316 µM, first compound 0.000316 µM
  viability, T/C: 105%
Second compound 0.0316 µM, first compound 0.001 µM
  viability, T/C: 107%
Second compound 0.0316 µM, first compound 0.00316 µM
  viability, T/C: 107%
Second compound 0.0316 µM, first compound 0.01 µM
  viability, T/C: 109%
Second compound 0.0316 µM, first compound 0.0316 µM
  viability, T/C: 122%
Second compound 0.0316 µM, first compound 0.1 µM
  viability, T/C: 112%
Second compound 0.1 µM, first compound 0.000316 µM
  viability, T/C: 105%
Second compound 0.1 µM, first compound 0.001 µM
  viability, T/C: 99.2%
Second compound 0.1 µM, first compound 0.00316 µM
  viability, T/C: 120%
Second compound 0.1 µM, first compound 0.01 µM
  viability, T/C: 113%
Second compound 0.1 µM, first compound 0.0316 µM
  viability, T/C: 109%
Second compound 0.1 µM, first compound 0.1 µM
  viability, T/C: 99%
Second compound 0.316 µM, first compound 0.000316 µM
  viability, T/C: 108%
Second compound 0.316 µM, first compound 0.001 µM
  viability, T/C: 101%
Second compound 0.316 µM, first compound 0.00316 µM
  viability, T/C: 96.6%
Second compound 0.316 µM, first compound 0.01 µM
  viability, T/C: 103%
Second compound 0.316 µM, first compound 0.0316 µM
  viability, T/C: 104%
Second compound 0.316 µM, first compound 0.1 µM
  viability, T/C: 102%
Second compound 1 µM, first compound 0.000316 µM
  viability, T/C: 94.4%
Second compound 1 µM, first compound 0.001 µM
  viability, T/C: 100%
Second compound 1 µM, first compound 0.00316 µM
  viability, T/C: 93.9%
Second compound 1 µM, first compound 0.01 µM
  viability, T/C: 106%
Second compound 1 µM, first compound 0.0316 µM
  viability, T/C: 96.5%
Second compound 1 µM, first compound 0.1 µM
  viability, T/C: 92.2%
Second compound 3.16 µM, first compound 0.000316 µM
  viability, T/C: 84.5%
Second compound 3.16 µM, first compound 0.001 µM
  viability, T/C: 82.1%
Second compound 3.16 µM, first compound 0.00316 µM
  viability, T/C: 81.5%
Second compound 3.16 µM, first compound 0.01 µM
  viability, T/C: 76.5%
Second compound 3.16 µM, first compound 0.0316 µM
  viability, T/C: 90%
Second compound 3.16 µM, first compound 0.1 µM
  viability, T/C: 81.2%
Second compound 10 µM, first compound 0.000316 µM
  viability, T/C: 83%
Second compound 10 µM, first compound 0.001 µM
  viability, T/C: 70.1%
Second compound 10 µM, first compound 0.00316 µM
  viability, T/C: 66.5%
Second compound 10 µM, first compound 0.01 µM
  viability, T/C: 84%
Second compound 10 µM, first compound 0.0316 µM
  viability, T/C: 81.9%
Second compound 10 µM, first compound 0.1 µM
  viability, T/C: 73%

Reference: PubChem BioAssay AID1963425 (Molecular Pharmacology Branch, DTP, NCI, 2024)
